Results published in patent US20060270603A1, “Amidated parathyroid hormone fragments and uses thereof” (Unigene Laboratories Inc., priority 2004, published 2006).
No end group written: not given here.

Assays:
ovariectomized rats = assay: Efficacy testing of PTH analogs in ovariectomized rats; assay type: in vivo, Sprague Dawley rats; settings: for proximal tibia trabecular bone mineral density (BMD) by pQCT: Week 20; for osteocalcin (bone formation marker): plasma
Protocol: To compare their effects in bone, amidated fragments of human parathyroid hormone (PTH) were evaluated in the ovariectomized rat model. Aged female Sprague Dawley rats were subject to bilateral ovariectomy or sham surgery. The animals were held untreated for a period of 8 weeks to allow the development of osteopenia. At that point, the ovariectomized animals were segregated into groups, and each group received daily subcutaneous injection of either vehicle or one of the following PTH fragments: PTH[1-30]NH2, PTH[1-31]NH2, PTH[1-32]NH2, PTH[1-33]NH2, and PTH[1-34]NH2 at a dose of 9.7 nmol/Kg. Treatment continued for a period of twelve weeks. Primary measures of analyses were 1) bone mineral density (BMD) of the spine (L3-L6) as determined by Dual Energy X-Ray Absorptiometry (DXA), 2) trabecular BMD of the proximal tibia as determined by peripheral Quantitative Computed Tomography (pQCT)and 3) evaluation of cortical bone in the distal tibia by PQCT. Secondary measures included urinary deoxypyridinoline (bone resorption marker), plasma osteocalcin (bone formation marker), histomorphometry of trabecular bone from the fourth lumbar vertebra (L4) and cortical bone from the distal tibia, microcomputed tomography (μCT), and bone strength tests of the spine and femur. Bone strength analysis was done on the femoral midshaft and a lumbar vertebral body.
In other experiments involving an ovariectomized rat model for osteoporosis, good efficacy is shown for the pharmaceutical agents of the invention. For example, the groups used in the study were: Sham, OVX (ovariectomized rats), OVX+PTH(1-30)NH2, OVX+PTH(1-31)NH2, OVX +PTH(1-32)NH2, OVX +PTH(1-33)NH2 and OVX +PTH(1-34)NH2.

ovariectomized rat model = settings: cited from earlier work
adenylyl cyclase (AC) = settings: cited from earlier work
[1] = 9.7 nmol/Kg daily subcutaneous injection, twelve weeks

Substance | proximal tibia trabecular bone mineral density (BMD) by pQCT (ovariectomized rats) | bone formation rate/bone surface (BFR/BS) on the periosteal surface (ovariectomized rats; compared to OVX) | cortical bone mass, bone formation on periosteal and endosteal bone surfaces (anabolic effect) (ovariectomized rats; rat, in vivo) | osteocalcin (bone formation marker) (ovariectomized rats) | other results
PTH[1-33]NH2: C-terminal amidated human parathyroid hormone analog; hPTH-(1-33) sequence is SEQ ID NO:21 (SVSEIQLMHNLGKHLNSMERVEWLRKKLQDVHN-NH2; listed as Homo sapiens) | did not continue to increase | increased BFR/BS | increased cortical bone mass |  | 
PTH[1-32]NH2: C-terminal amidated human parathyroid hormone analog; hPTH-(1-32) sequence is SEQ ID NO:20 (SVSEIQLMHNLGKHLNSMERVEWLRKKLQDVH-NH2; listed as Homo sapiens) | continue to increase |  | increased cortical bone mass |  | percent porosity of the intracortex (ovariectomized rats; compared to OVX): significantly increased when compared to OVX except hPTH(1-32) amide
PTH[1-30]NH2: amidated fragment of human parathyroid hormone (PTH), 30 amino acids (SVSEIQLMHNLGKHLNSMERVEWLRKKLQD-NH2; UniProt P01270 32-61, looked up, fragment) |  |  | anabolic effect is weak | significant increase in osteocalcin was observed for all PTH fragment treated groups except for PTH(1-30)NH2 | increase in lumbar BMD (L3-L6) by DXA relative to the vehicle-treated ovariectomized animals (ovariectomized rats; [1]): 13%; increase in maximal load, compression testing of a lumbar vertebral body, relative to vehicle-treated ovariectomized animals (ovariectomized rats; [1]): 53%; effect on bone mass and strength (conclusion) (ovariectomized rats; common dose): gain in bone mass that was of a smaller magnitude than the other fragments; bone formation rate/bone surface, trabecular bone (ovariectomized rats; histomorphometry): anabolic effects of all hPTH amide fragments except hPTH(1-30); trabecular area (trabecular bone mass) (ovariectomized rats; in contrast to OVX): increased trabecular bone mass in contrast to OVX except for the hPTH amide fragment (1-30); anabolic effectiveness overall (percent trabecular area, bone volume/total volume, trabecular thickness and number) (ovariectomized rats; micro-CT and histomorphometry): less anabolically effective than the other fragments; cortical analysis of the midshaft of the femur by pQCT (ovariectomized rats; rat, in vivo): all fragments to be effective except hPTH(1-30)NH2; indices of cortical bone strength derived from pQCT (ovariectomized rats; rat, in vivo): no effect
PTH[1-34]NH2: amidated fragment of human parathyroid hormone (PTH), 34 amino acids; hPTH-(1-34) sequence is SEQ ID NO:1 | continue to increase | increased BFR/BS | increased cortical bone mass | significantly more increase than PTH amide fragments (1-31) and (1-32) | 
Ser Val Ser Glu Ile Gln Leu Met His Asn Leu Gly Lys His Leu Asn Ser Met Glu Arg Val Glu Trp Leu Arg Lys Lys Leu Gln Asp Val-NH2 [PTH[1-31]NH2] | continue to increase | increased BFR/BS | increased cortical bone mass |  | restoration of bone loss (ovariectomized rat model): fully active; AC-stimulating activity (adenylyl cyclase (AC)): has only AC-stimulating activity; total area (ovariectomized rats; cortical bone): did not increase significantly except hPTH amide (1-31)
